Literature values, collected in patent US10093983B2 (priority 2011, dated 2018).

Molecular target: T1, D351Y or D351E mutant ESR1 (Homo sapiens, UniProt P03372, D351Y)
T1 sequence (P03372 1-595 D351Y): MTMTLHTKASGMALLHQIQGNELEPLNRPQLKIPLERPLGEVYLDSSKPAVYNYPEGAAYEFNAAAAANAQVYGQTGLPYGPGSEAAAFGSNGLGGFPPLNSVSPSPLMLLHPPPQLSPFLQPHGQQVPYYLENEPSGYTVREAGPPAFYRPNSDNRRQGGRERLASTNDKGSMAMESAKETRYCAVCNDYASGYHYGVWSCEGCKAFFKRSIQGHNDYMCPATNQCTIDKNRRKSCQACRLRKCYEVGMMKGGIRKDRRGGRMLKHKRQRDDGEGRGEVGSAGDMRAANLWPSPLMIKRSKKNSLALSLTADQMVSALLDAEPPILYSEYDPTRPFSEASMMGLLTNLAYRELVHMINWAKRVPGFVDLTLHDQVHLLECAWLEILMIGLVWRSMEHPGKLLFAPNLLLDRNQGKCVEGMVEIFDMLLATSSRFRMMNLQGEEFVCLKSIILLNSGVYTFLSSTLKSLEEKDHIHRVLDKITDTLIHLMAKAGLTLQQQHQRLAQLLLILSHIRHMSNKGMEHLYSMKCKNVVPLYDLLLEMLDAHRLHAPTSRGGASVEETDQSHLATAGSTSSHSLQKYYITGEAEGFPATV

C[C@]12CC[C@@H]3c4ccc(O)cc4C[C@@H](CCCCCCCCC[S+]([O-])CCCC(F)(F)C(F)(F)F)[C@H]3[C@@H]1CC[C@@H]2O (stereo partly shown) [fulvestrant]
effects of the antiestrogen upon mutating D351 to tyrosine: unaffected
